Data: PubChem BioAssay (NCI)
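Method: 48-hour compound exposure of cells in 96-well plates, five concentrations, linear interpolation of endpoints. TGI marks complete inhibition of growth.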

Experiments:
Assay in all cases: DTP human tumour cell line panel, 48 h
HT29 colon = tested on: HT29 colon
SF-268 CNS = tested on: SF-268 CNS
TK-10 renal = tested on: TK-10 renal
PC-3 prostate = tested on: PC-3 prostate
ACHN renal = tested on: ACHN renal
KM12 colon = tested on: KM12 colon
UO-31 renal = tested on: UO-31 renal
NCI-H226 lung = tested on: NCI-H226 lung
SF-539 CNS = tested on: SF-539 CNS
NCI-H460 lung = tested on: NCI-H460 lung
COLO 205 colon = tested on: COLO 205 colon
NCI-H23 lung = tested on: NCI-H23 lung
UACC-257 melanoma = tested on: UACC-257 melanoma
HCT-116 colon = tested on: HCT-116 colon
MALME-3M melanoma = tested on: MALME-3M melanoma
SF-295 CNS = tested on: SF-295 CNS
OVCAR-5 ovarian = tested on: OVCAR-5 ovarian
A549 NSCLC = tested on: A549 NSCLC
NCI-H522 lung = tested on: NCI-H522 lung
RXF 393 renal = tested on: RXF 393 renal

Row | SMILES | TGI (HT29 colon) [µM] | TGI (SF-268 CNS) [µM] | TGI (TK-10 renal) [µM] | TGI (PC-3 prostate) [µM] | TGI (ACHN renal) [µM] | TGI (KM12 colon) [µM] | TGI (UO-31 renal) [µM] | TGI (NCI-H226 lung) [µM] | TGI (SF-539 CNS) [µM] | TGI (NCI-H460 lung) [µM] | TGI (COLO 205 colon) [µM] | TGI (NCI-H23 lung) [µM] | TGI (UACC-257 melanoma) [µM] | TGI (HCT-116 colon) [µM] | TGI (MALME-3M melanoma) [µM] | TGI (SF-295 CNS) [µM] | TGI (OVCAR-5 ovarian) [µM] | TGI (A549 NSCLC) [µM] | TGI (NCI-H522 lung) [µM] | TGI (RXF 393 renal) [µM]
1 | COc1ccc2nc3cc([N+](=O)[O-])ccc3c(Nc3ccc(S(=O)(=O)N=C(N)N)cc3)c2c1 | > 100 | > 100 | > 100 | > 100 | > 100 | 57.5 | > 100 | > 100 | > 100 | 25 | 70.6 | > 100 | > 100 | 80.5 | 28.5 | > 100 | > 100 | > 100 | 41.3 | > 100
2 | Cc1coc2c1C(=O)C(=O)c1c-2ccc2c1CCCC2(C)C | 42.4 | > 100 | > 85.8 | > 44.7 | > 100 | > 92.3 | 14.2 | 11.2 | 7.59 | 10.4 | 22.5 | 2.8 | 2.37 | 4.27 | 2.3 | 8.49 | 28.5 | 11.9 | 3.98 | > 100
3 | COc1ccc2oc(=O)c(-c3nc4ccccc4o3)cc2c1 | > 100 | > 100 | > 100 | > 100 | > 100 | > 100 | > 100 | > 100 | > 100 | > 100 | > 100 | > 100 | > 100 | > 100 | > 100 | > 100 | > 100 | > 100 | > 100 | > 100
4 | CC1=NN(C(=O)CC(=O)Nc2cccc(C)c2)C(=O)C1N=Nc1ccc(S(=O)(=O)c2ccc(N=NC3C(=O)N(C(=O)CC(=O)Nc4cccc(C)c4)N=C3C)cc2)cc1 (stereo not given) | > 100 | > 100 | > 100 | > 100 | > 100 | > 100 | > 100 | > 100 | > 100 | > 100 | > 100 | > 100 | > 100 | > 100 | > 100 | > 100 | > 100 | > 100 | > 100 | > 100
5 | CC(C)n1c(=O)[nH]n(-c2ccccc2)c1=O | > 100 | > 100 | > 100 | > 100 | > 100 | > 100 | > 100 | > 100 | > 100 | > 100 | > 100 | > 100 | > 100 | > 100 | > 100 | > 100 | > 100 | > 100 | > 100 | > 100
6 | O=[N+]([O-])C(=C(N1CCCCC1)N1CCCCC1)/C(Cl)=C(\Cl)[N+](=O)[O-] | 12.5 | 25.4 | 10.1 | 30 | 9.24 | 41.7 | 8.11 | 45.7 | 25.8 | 59.9 | 11.5 | 14 | 15.5 | 7.54 | 6.28 | 46 | 35.5 | 42.4 | 3.37 | 2.94
7 | O=C1N=NC(=O)N1c1cc(C(F)(F)F)cc(C(F)(F)F)c1 | 8.1 | 17.3 | > 42.8 | 12.8 | 14.2 | 18.2 | 7.89 | 12.4 | 20.7 | 13.4 | 3.35 | 6.48 | 12.2 | 12.2 | 14.2 | 9.49 | 30.5 | 12 | 9.13 | 12.4
8 | CN(C)C(=S)N/N=C(\C(=N/NC(=S)N(C)C)c1ccccn1)c1ccccn1 | 17.6 | 23.7 | 22.2 | 24.4 | 20.1 | 33.6 | 21.6 | 28.2 | > 100 | 22.7 | 24.2 | > 53.2 | 50 | 25.1 | 33.9 | 29.6 | 55.1 | 27.3 | 9.26 | 18.1
9 | Cc1ccc2c(c1)C(C1Cc3cccc(C)c3C1=O)OC2=O (stereo not given) | > 100 | > 100 | > 100 | > 100 | > 100 | > 100 | > 100 | > 100 | > 100 | > 100 | > 100 | > 100 | > 100 | > 100 | > 100 | > 100 | > 100 | > 100 | > 100 | > 100
10 | CCOC(=O)c1[nH]cc(C)c1-c1c[nH]c2ccccc12 | > 82.6 | > 100 | > 80.3 | > 82.7 | > 71.4 | > 100 | 48.1 | 67.6 | > 100 | > 87.5 | 58.9 | > 100 | > 100 | > 53.2 | > 100 | > 93 | > 100 | > 100 | > 81.8 | > 80
11 | C=C(C)[C@@H]1CCC2=C[C@H](OC2=O)[C@@]2(C)C[C@@H]2C(=O)/C=C(/C)C(=O)[C@H]1OC(C)=O | > 48.4 | > 72.6 | > 62.7 | > 46.1 | > 48.2 | 42 | > 100 | 58.3 | > 33.7 | > 82.3 | 45.3 | > 58.5 | 81.4 | 20.3 | 29.8 | > 100 | 43.9 | > 71.9 | 17.1 | > 48
12 | CC[C@@H]1CC[C@@H]2[C@H](CC[C@]3(C)[C@@H](O)CC[C@@H]23)[C@H]1CO | > 100 | > 100 | > 100 | > 100 | > 100 | > 100 | > 100 | > 100 | > 100 | > 100 | > 100 | > 100 | > 100 | > 100 | > 100 | > 100 | > 100 | > 100 | > 100 | > 100
13 | C(=NCCCN1CCN(CCCN=Cc2cccc3ccccc23)CC1)c1cccc2ccccc12 | > 100 | > 100 | > 100 | > 100 | > 100 | > 100 | > 100 | > 100 | > 100 | > 100 | > 100 | > 100 | > 100 | > 100 | > 100 | > 100 | > 100 | > 100 | > 100 | 78.2
14 | COC(=O)c1cnn2c1ccc1ccccc12 | > 100 | > 100 | > 100 | > 100 | > 100 | > 100 | > 100 | > 100 | > 100 | > 100 | > 100 | > 100 | > 100 | > 100 | > 100 | > 100 | > 100 | > 100 | > 100 | > 100
15 | CCOC(=O)N1CCN(c2nc(C)n(-c3ccccc3)c(=S)c2C#N)CC1 | > 100 | > 100 | > 100 | > 100 | > 100 | > 100 | > 100 | > 100 | > 100 | > 100 | > 100 | > 100 | > 100 | > 100 | > 100 | > 100 | > 100 | > 100 | > 66.3 | > 100
16 | CS/C(=N\S(=O)(=O)c1cc(C)c(Cl)cc1Cl)NNc1cnc2ccccc2n1 | > 100 | > 100 | > 100 | > 100 | > 100 | > 100 | > 100 | > 100 | > 100 | > 100 | > 100 | > 100 | > 100 | > 100 | > 100 | > 100 | > 100 | > 100 | > 100 | > 100
17 | CC(=O)NC1C(OC2C(CO)OC(OCC3OC(n4ccc(N)nc4=O)C(O)C3O)C(NC(C)=O)C2O)OC(CO)C(O)C1O (stereo not given) | > 100 | > 100 | > 100 | > 100 | > 100 | > 100 | > 100 | > 100 | > 100 | > 100 | > 100 | > 100 | > 100 | > 100 | > 100 | > 100 | > 100 | > 100 | > 100 | > 100
18 | NC(=NCCN1CCCCCCC1)NO | > 100 | > 100 | > 100 | > 100 | 43.4 | > 100 | > 100 | > 100 | > 100 | > 100 | > 100 | > 100 | > 100 | 26.7 | > 100 | > 100 | > 100 | > 100 | > 100 | > 100
